# Where a SMILES comes first, the peptide text is derived from it.
# Assays:
# Male C57BL/6J mice = format: in vivo; settings: 0.1 or 1 mg/kg i.p. for 10 days
# Method: Male C57BL/6J mice received a chronic treatment with Pep19 (0.1 or 1 mg/kg) or saline administrated i.p. for 10 days, once a day. The same animal was tested in the EPM and FST 30 and 35 minutes after the last injection, respectively.
# Supplemental Figure 2. In vivo assays showing results of chronic treatment with Pep19 i.p. for 10 days. To further confirm the lack of in vivo effects of Pep19, it was chronically administrated for 10 days, and the behavior effects were evaluated in the tetrad cannabinoid tests, consisting of (a) catalepsy, (b) tail temperature, (c) locomotor activity and (d) hot plate test. Note that no […]
# (saline) or Pep19 (one-way ANOVA followed by Tukey’s test, n = 6/group), […]
# (a-d; * P<0.05). In the elevated plus maze (e, f) the anxiety-like activity of chronic administration was evaluated following i.p. injections of 0.1 or 1 mg/kg […]
# groups treated with vehicle or Pep19 (one-way ANOVA followed by Tukey’s […]
# locomotor (g) and speed travelled (h) in the elevated plus maze. In the forced swim test (i), chronic administration of Pep19 i.p. for 10 days produced no significant differences (one-way ANOVA followed by Tukey’s test, n = 6-7/ […]
# CB1R = molecular target: T1, CB1R (Mus musculus, UniProt P47746); assay: Displacement of [3H]SR141716A binding, membranes of 3T3-L1 cells; settings: membranes (250 μg) of 3T3-L1 cells endogenously expressing CB1R, [3H]SR141716A 3 nM, Pep19 0–10 μM, 1 h at 30 °C, pH 7.8, n = 3; read-out: IC50, displaces [3H]SR141716A binding
# T1 construct: Membranes were prepared from 3T3-L1 cells endogenously expressing CB1R; endogenous in cells; host or cells: 3T3-L1 cells (membranes)
# T1 sequence (P47746 whole entry): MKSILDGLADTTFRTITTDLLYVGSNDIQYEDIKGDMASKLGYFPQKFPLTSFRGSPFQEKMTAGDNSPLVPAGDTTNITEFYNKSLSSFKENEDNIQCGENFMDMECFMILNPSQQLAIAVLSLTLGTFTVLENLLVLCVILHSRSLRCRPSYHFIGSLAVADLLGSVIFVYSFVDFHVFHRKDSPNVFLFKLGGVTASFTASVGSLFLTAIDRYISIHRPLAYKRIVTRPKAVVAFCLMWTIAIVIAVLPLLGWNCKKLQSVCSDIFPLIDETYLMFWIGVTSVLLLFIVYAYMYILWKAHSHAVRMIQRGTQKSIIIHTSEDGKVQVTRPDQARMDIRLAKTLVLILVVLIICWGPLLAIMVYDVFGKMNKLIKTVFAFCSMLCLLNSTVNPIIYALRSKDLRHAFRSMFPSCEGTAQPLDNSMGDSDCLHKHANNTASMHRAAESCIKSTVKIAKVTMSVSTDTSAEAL
# Method: Membranes were prepared from 3T3-L1 cells endogenously expressing CB1R, and displacement ligand binding assays were carried out as previously described[8] with minor modifications. Briefly, membranes (250 μg) were incubated with [^3H] SR141716A (3 nM) in 50 mM Tris-Cl, pH 7.8, containing 1 mM EGTA, 5 mM MgCl2, and protease inhibitor cocktail in the presence of Pep19 (0–10 μM) for 1 h at 30 °C. At the end of the incubation period, membranes were filtered using a Brandel filtration system and GF/B filters (presoaked for 2 h at room temperature with 0.1% polyethyleneimine containing 0.2% fatty acid free BSA), filters were washed 3 times with ice-cold 50 mM Tris-Cl (pH 7.4) and bound radioactivity measured using a liquid scintillation counter.
# Supplemental Figure 1. Ligand binding studies with Pep19. Membranes were prepared from 3T3L-1 cells endogenously expressing CB1R, and displacement ligand binding assays were carried out as previously described8 with minor modifications. Membranes (250 μg) were incubated with [3H]SR141716A (3 nM) in 50 mM Tris-Cl, pH 7.8, containing 1 mM EGTA, 5 mM MgCl2, and protease inhibitor cocktail in the presence of Pep19 (0-10 μM).
# Values in the absence of Pep19 were taken as 100%. Data represent mean ± […]
# (1 picture or pasted object on this page, not shown here)
# DIO Wistar rats = assay: Tail-cuff blood pressure and heart rate in DIO rats; format: in vivo; settings: oral by gavage, mean ± SEM
# Method: Measurements of systolic blood pressure were performed at the proximal part of the tail, by a tail-cuff method using the Kent RTBP2000 system and the Kent RTB001-R data acquisition system (Kent Scientific Corporation, Torrington, CT, USA) from 9 to 11 a.m. Before measurements, rats were warmed for 10 min and three stable consecutive measurements were taken and averaged after animals have been trained for proper adaptation to the procedures.
# C57BL/6J mice = assay: Tetrad cannabinoid tests (catalepsy, tail temperature, locomotor activity, hot plate); format: in vivo; settings: n = 6/group
# Method: C57BL/6J mice were treated i.p. with Pep19 (0.1 or 1 mg/kg), the CB1R agonist WIN55,212-2 (5 mg/kg) or vehicle (n = 6 per group) and evaluated in the tetrad cannabinoid tests. Another group of animals received Pep19 (0.1 or 1 mg/kg) or saline i.p. for 10 days, once a day. In the last day of treatment the animals were subjected to the tetrad cannabinoid tests 30 minutes after the i.p. administration. The CB1 agonist WIN55,212-2 (5 mg/kg) was administrated i.p. 30 minutes before the experiments as a positive control (n = 6 per group).
# It was assayed by the bar test[40], 30 min after drug administration. Briefly, each mouse was placed on a bar oriented parallel to and approximately 4 cm above the bench surface. Cataleptic behavior was defined as the time the animal remained motionless holding on to the bar; cutoff = 300 s[41].
# It was determined by using a thermal probe (Thermocom®, Nashua, NH 03062, EUA) positioned 50 cm of the animal. The mean of five pictures of five different tail regions was compared between a basal evaluation and another observation 35 min after drug administration.
# It was determined by an open field test, in which a mouse was placed in a circular cage (40 cm diameter), 37 min after drug administration. The distance traveled by the animal was recorded for 10 min by the software ANY-MAZE (Stoelting).
# The mouse was placed on a heated plate at 56 °C. An experimenter measured the time it took for the mouse to lick the paws or jump off of the hot plate; cutoff = 30 s[42]. The variation between a basal evaluation and another one taken 45 min after drug administration was defined as the result.
# Male Wistar rats [1] = assay: Forced swim test; format: in vivo; settings: first 5 min of the swim test, n = 6/group (Pep19), n = 8–10/group (rimonabant)
# Method: The forced swim test was based on previous designs. Male Wistar rats were placed in a cylindrical plexiglass tank (50 cm high and 30 cm diameter) filled with water (19 °C) up to a level of 25 cm from the bottom. The animal’s behavior during the first 5 min of the swim test was scored by a trained observer and the following measures were taken: (1) time spent swimming, defined as movements of all four limbs, swimming around the tank or diving and (2) time spent floating, defined as the time the animal remained immobile with only occasional slight movements to keep the body balanced and the nose above the water.
# Male Wistar rats [2] = assay: Elevated plus maze; format: in vivo; settings: 100–600 µg/kg, one hour after administration, 5 min, n = 7–9/group
# Method: Male Wistar rats were tested in a wooden-made elevated plus maze according to Hefner and Holmes[43] one hour after vehicle or Pep19 i.p. administration (100–600 µg/kg). The percentage of entries, time spent in the open arms, and the number of enclosed arms entries for 5 min were analyzed by the Anymaze Software (version 4.5, Stoelting, USA). Locomotor activity and speed traveled were also recorded.
# HeLa cells = format: cell-based; settings: up to 100 µM, n = 3/group
# Method: (§1) HeLa and HEK293-T cells were cultured in DMEM (Dulbecco’s Modified Eagle Medium, Gibco®, USA) containing 10% fetal bovine serum (complete medium), penicillin and streptomycin (Gibco®, USA) at 37 °C and in presence of 5% of CO2. For cell counting, single cell suspension of HeLa and HEK293-T cells were rinsed with PBS and treated with 0.4% Trypan blue in PBS for 90 s. Excess dye was removed, and the cells were washed twice with PBS before counting. For a control of 100% permeabilized cells they were treated with 50% ethanol for 1 min and then stained as described above. In all of the experiments cellular viability was greater than 98% (data not shown). The MTT (3-(4,5-dimethylthiazol-2-yl)-2,5-diphenyltetrazolium bromide) tetrazolium reduction assays were conducted in a 96-well format. The optical density was measured at 570 nm using a SpectraMax M2 (Molecular Devices, Sunnyvale, CA, USA). Three independent experiments were conducted in triplicates for each treatment.
# HEK293T cells = format: cell-based; settings: up to 100 µM, n = 3/group
# Method: as §1
smiles,measurement,setting,value
CC[C@H](C)[C@H](NC(=O)[C@@H](NC(=O)[C@@H](N)CC(=O)O)[C@@H](C)CC)C(=O)N[C@@H](C)C(=O)N[C@@H](CC(=O)O)C(=O)N[C@@H](CC(=O)O)C(=O)N[C@@H](CCC(=O)O)C(=O)N1CCC[C@H]1C(=O)N[C@@H](CC(C)C)C(=O)N[C@H](C(=O)O)[C@@H](C)O [Pep19] (H-DIIADDEPLT-OH),"elevated plus maze after chronic treatment: anxiety-like activity, locomotor and speed travelled","Male C57BL/6J mice; 30 minutes after the last injection, n=6-7/group",no significant differences were observed
same,forced swim test after chronic treatment,"Male C57BL/6J mice; 35 minutes after the last injection, n = 6-7/group",produced no
same,IC50,CB1R,~4.9 pM
same,Heart rate,DIO Wistar rats; 100 µg/Kg,405.3 ± 2.3 (n = 3) beats/min
same,Heart rate,DIO Wistar rats; 300 µg/Kg,399.9 ± 5.8 (n = 3) beats/min
same,Heart rate,DIO Wistar rats; 600 µg/Kg,408.5 ± 4.1 (n = 3) beats/min
same,cannabinoid tetrad after chronic treatment,"C57BL/6J mice; 0.1 or 1 mg/kg i.p. for 10 days, once a day, tested 30 minutes after last administration",significant differences were observed between the groups treated with vehicle
same,"cannabinoid tetrad (catalepsy, hot plate, locomotor activity, tail temperature)","C57BL/6J mice; 0.1 or 1 mg/kg i.p., single administration",has no effect on the cannabinoid tetrad
same,forced swim test: time spent swimming and time spent floating,Male Wistar rats [1],produced no significant differences
same,"elevated plus maze: distance moved, speed, ratio of open/total arms entries and time spent",Male Wistar rats [2],did not alter
same,"cell toxicity, MTT reduction assay",HeLa cells,has no ability to induce cell toxicity
same,"cell toxicity, MTT reduction assay",HEK293T cells,has no ability to induce cell toxicity

# Source: publication PMC5665932, “A novel peptide that improves metabolic parameters without adverse central nervous system effects” (Scientific Reports, 2017)
